Experimental data published in PubChem BioAssay (NCI).
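Tested at 5 concentrations; 48 h exposure; 96-well plates; endpoints linearly interpolated, else capped at highest concentration. GI50 = concentration required for 50% inhibition of growth. TGI denotes the concentration required for complete inhibition of growth.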

Columns and labels:
Experiment in all cases: inhibition of tumour cell growth, NCI panel, 48 h
786-0 renal = tested on: 786-0 renal
A498 renal = tested on: A498 renal
A549 NSCLC = tested on: A549 NSCLC
ACHN renal = tested on: ACHN renal
BT-549 breast = tested on: BT-549 breast
CAKI-1 renal = tested on: CAKI-1 renal
CCRF-CEM leukemia = tested on: CCRF-CEM leukemia
DU-145 prostate = tested on: DU-145 prostate
EKVX NSCLC = tested on: EKVX NSCLC
HCT-116 colon = tested on: HCT-116 colon
HL-60(TB) leukemia = tested on: HL-60(TB) leukemia
HOP-62 NSCLC = tested on: HOP-62 NSCLC
HOP-92 NSCLC = tested on: HOP-92 NSCLC
HS 578T breast = tested on: HS 578T breast
IGROV1 ovarian = tested on: IGROV1 ovarian
K-562 leukemia = tested on: K-562 leukemia
KM12 colon = tested on: KM12 colon
MCF7 breast = tested on: MCF7 breast
MDA-MB-435 = tested on: MDA-MB-435
NCI-H226 lung = tested on: NCI-H226 lung
NCI-H23 lung = tested on: NCI-H23 lung
NCI-H460 lung = tested on: NCI-H460 lung
NCI-H522 lung = tested on: NCI-H522 lung
OVCAR-8 ovarian = tested on: OVCAR-8 ovarian
RPMI-8226 leukemia = tested on: RPMI-8226 leukemia
RXF 393 renal = tested on: RXF 393 renal
SF-268 CNS = tested on: SF-268 CNS
SF-539 CNS = tested on: SF-539 CNS
SK-OV-3 ovarian = tested on: SK-OV-3 ovarian
SNB-19 CNS = tested on: SNB-19 CNS
SNB-75 CNS = tested on: SNB-75 CNS
T-47D breast = tested on: T-47D breast
TK-10 renal = tested on: TK-10 renal
U251 CNS = tested on: U251 CNS
UACC-257 melanoma = tested on: UACC-257 melanoma
UACC-62 melanoma = tested on: UACC-62 melanoma
UO-31 renal = tested on: UO-31 renal
COLO 205 colon = tested on: COLO 205 colon
LOX IMVI melanoma = tested on: LOX IMVI melanoma
MALME-3M melanoma = tested on: MALME-3M melanoma
MDA-MB-231 breast = tested on: MDA-MB-231 breast
OVCAR-4 ovarian = tested on: OVCAR-4 ovarian
OVCAR-5 ovarian = tested on: OVCAR-5 ovarian
PC-3 prostate = tested on: PC-3 prostate
SF-295 CNS = tested on: SF-295 CNS
SK-MEL-2 melanoma = tested on: SK-MEL-2 melanoma
SK-MEL-5 melanoma = tested on: SK-MEL-5 melanoma
SN12C renal = tested on: SN12C renal
SR leukemia = tested on: SR leukemia

Compound: C#C[C@]1(O)CC[C@H]2[C@@H]3CC=C4c5sc(Nc6nc(C)cc(OC)n6)nc5CC[C@]4(C)[C@H]3CC[C@@]21C
- GI50 (786-0 renal): 0.379 µM
- TGI (786-0 renal): 2.28 µM
- GI50 (A498 renal): 1.51 µM
- TGI (A498 renal): 5.93 µM
- GI50 (A549 NSCLC): 2.97 µM
- TGI (A549 NSCLC): > 100 µM
- GI50 (ACHN renal): 1.19 µM
- TGI (ACHN renal): > 100 µM
- GI50 (BT-549 breast): 4.5 µM
- TGI (BT-549 breast): 79.9 µM
- GI50 (CAKI-1 renal): 1.55 µM
- TGI (CAKI-1 renal): > 100 µM
- GI50 (CCRF-CEM leukemia): 1.21 µM
- TGI (CCRF-CEM leukemia): > 100 µM
- GI50 (DU-145 prostate): 3.25 µM
- TGI (DU-145 prostate): > 100 µM
- GI50 (EKVX NSCLC): 2.39 µM
- TGI (EKVX NSCLC): > 100 µM
- GI50 (HCT-116 colon): 1.24 µM
- TGI (HCT-116 colon): > 100 µM
- GI50 (HL-60(TB) leukemia): 0.531 µM
- TGI (HL-60(TB) leukemia): 5.38 µM
- GI50 (HOP-62 NSCLC): 2.01 µM
- TGI (HOP-62 NSCLC): 35.2 µM
- GI50 (HOP-92 NSCLC): 2.65 µM
- TGI (HOP-92 NSCLC): 7.69 µM
- GI50 (HS 578T breast): 0.323 µM
- TGI (HS 578T breast): 2.19 µM
- GI50 (IGROV1 ovarian): 3.44 µM
- TGI (IGROV1 ovarian): > 100 µM
- GI50 (K-562 leukemia): 0.528 µM
- TGI (K-562 leukemia): > 100 µM
- GI50 (KM12 colon): 3.16 µM
- TGI (KM12 colon): > 100 µM
- GI50 (MCF7 breast): 1.41 µM
- TGI (MCF7 breast): > 100 µM
- GI50 (MDA-MB-435): 2.35 µM
- TGI (MDA-MB-435): > 100 µM
- GI50 (NCI-H226 lung): > 100 µM
- TGI (NCI-H226 lung): > 100 µM
- GI50 (NCI-H23 lung): 3.93 µM
- TGI (NCI-H23 lung): > 100 µM
- GI50 (NCI-H460 lung): 1.82 µM
- TGI (NCI-H460 lung): > 100 µM
- GI50 (NCI-H522 lung): 3.02 µM
- TGI (NCI-H522 lung): > 100 µM
- GI50 (OVCAR-8 ovarian): 4.16 µM
- TGI (OVCAR-8 ovarian): > 100 µM
- GI50 (RPMI-8226 leukemia): 0.239 µM
- TGI (RPMI-8226 leukemia): 0.899 µM
- GI50 (RXF 393 renal): 0.161 µM
- TGI (RXF 393 renal): 0.497 µM
- GI50 (SF-268 CNS): 5.47 µM
- TGI (SF-268 CNS): > 100 µM
- GI50 (SF-539 CNS): 0.264 µM
- TGI (SF-539 CNS): 1.43 µM
- GI50 (SK-OV-3 ovarian): 1.55 µM
- TGI (SK-OV-3 ovarian): 9.13 µM
- GI50 (SNB-19 CNS): 0.986 µM
- TGI (SNB-19 CNS): > 100 µM
- GI50 (SNB-75 CNS): 0.864 µM
- TGI (SNB-75 CNS): 84.8 µM
- GI50 (T-47D breast): 2.57 µM
- TGI (T-47D breast): > 100 µM
- GI50 (TK-10 renal): 14.9 µM
- TGI (TK-10 renal): > 100 µM
- GI50 (U251 CNS): 0.575 µM
- TGI (U251 CNS): 73.1 µM
- GI50 (UACC-257 melanoma): 1.74 µM
- TGI (UACC-257 melanoma): 4.82 µM
- GI50 (UACC-62 melanoma): 0.54 µM
- TGI (UACC-62 melanoma): 2.73 µM
- GI50 (UO-31 renal): 0.575 µM
- TGI (UO-31 renal): 3.18 µM

Compound: O=C(Nc1ccc(Br)cc1)Nc1nc2ccc([N+](=O)[O-])cc2s1
- GI50 (A498 renal): 0.192 µM
- TGI (A498 renal): 0.785 µM
- GI50 (A549 NSCLC): 1.86 µM
- TGI (A549 NSCLC): 6.9 µM
- GI50 (BT-549 breast): 1.52 µM
- TGI (BT-549 breast): 3.27 µM
- GI50 (CCRF-CEM leukemia): 0.377 µM
- TGI (CCRF-CEM leukemia): 2.74 µM
- GI50 (COLO 205 colon): 1.64 µM
- TGI (COLO 205 colon): 3.15 µM
- GI50 (DU-145 prostate): 1.73 µM
- TGI (DU-145 prostate): 4.68 µM
- GI50 (HCT-116 colon): 0.875 µM
- TGI (HCT-116 colon): 2.37 µM
- GI50 (HL-60(TB) leukemia): 1.02 µM
- TGI (HL-60(TB) leukemia): 2.75 µM
- GI50 (HOP-62 NSCLC): 1.88 µM
- TGI (HOP-62 NSCLC): 5.04 µM
- GI50 (HS 578T breast): 1.47 µM
- TGI (HS 578T breast): 3.99 µM
- GI50 (LOX IMVI melanoma): 1.34 µM
- TGI (LOX IMVI melanoma): 2.67 µM
- GI50 (MALME-3M melanoma): 0.792 µM
- TGI (MALME-3M melanoma): 3.49 µM
- GI50 (MDA-MB-231 breast): 1.47 µM
- TGI (MDA-MB-231 breast): 3.5 µM
- GI50 (NCI-H226 lung): 1.44 µM
- TGI (NCI-H226 lung): 3.09 µM
- GI50 (NCI-H23 lung): 0.926 µM
- TGI (NCI-H23 lung): 2.5 µM
- GI50 (NCI-H460 lung): 1.28 µM
- TGI (NCI-H460 lung): 3.08 µM
- GI50 (OVCAR-4 ovarian): 1.13 µM
- TGI (OVCAR-4 ovarian): 3.82 µM
- GI50 (OVCAR-5 ovarian): 2.08 µM
- TGI (OVCAR-5 ovarian): 5.07 µM
- GI50 (PC-3 prostate): 0.542 µM
- TGI (PC-3 prostate): 2.08 µM
- GI50 (RPMI-8226 leukemia): 0.425 µM
- TGI (RPMI-8226 leukemia): 1.7 µM
- GI50 (RXF 393 renal): 0.862 µM
- TGI (RXF 393 renal): 2.41 µM
- GI50 (SF-268 CNS): 1.69 µM
- TGI (SF-268 CNS): 5.44 µM
- GI50 (SF-295 CNS): 1.27 µM
- TGI (SF-295 CNS): 2.95 µM
- GI50 (SF-539 CNS): 1.31 µM
- TGI (SF-539 CNS): 3.08 µM
- GI50 (SK-MEL-2 melanoma): 1.26 µM
- TGI (SK-MEL-2 melanoma): 3 µM
- GI50 (SK-MEL-5 melanoma): 0.696 µM
- TGI (SK-MEL-5 melanoma): 2.03 µM
- GI50 (SK-OV-3 ovarian): 1.59 µM
- TGI (SK-OV-3 ovarian): 6.75 µM
- GI50 (SN12C renal): 1.53 µM
- TGI (SN12C renal): 4.65 µM
- GI50 (SNB-19 CNS): 1.18 µM
- TGI (SNB-19 CNS): 4.07 µM
- GI50 (SNB-75 CNS): 1.07 µM
- TGI (SNB-75 CNS): 3 µM
- GI50 (SR leukemia): 0.474 µM
- TGI (SR leukemia): 2.28 µM
- GI50 (T-47D breast): 0.573 µM
- TGI (T-47D breast): 3.38 µM
- GI50 (TK-10 renal): 1.89 µM
- TGI (TK-10 renal): 4.75 µM
- GI50 (U251 CNS): 1.2 µM
- TGI (U251 CNS): 4.26 µM
- GI50 (UACC-257 melanoma): 1.43 µM
- TGI (UACC-257 melanoma): 4.11 µM
- GI50 (UACC-62 melanoma): 1.07 µM
- TGI (UACC-62 melanoma): 3.6 µM
- GI50 (UO-31 renal): 1.49 µM
- TGI (UO-31 renal): 4.74 µM
